Data set [1] relates to mouse pulmonary thromboembolism model. Description: In vivo antithrombotic activity: acute pulmonary thromboembolism model induced by collagen-epinephrine mixture. As to conditions: mice; for deaths per group: ten per group, oral 100 µmol/10 g, 15 min after thrombogenic stimulus; for % Protection / Paralyzed or Died Animals/Total: oral single dose 100 µmol/10 g body weight; for % Protection: [1 − (paralyzed + death animals)/total animals] × 100; for Paralyzed or Died Animals/Total: collagen (11 mg/kg) plus epinephrine (0.7 mg/kg) i.v. after 60 min, evaluated 15 min after stimulus.
Procedure: The antithrombotic effects of all compounds (3a,b, 4a,b, 8a,b, 9a,b, 13a,b and 14a,b) were evaluated in vivo using a mouse pulmonary thromboembolism model [18, 19].
In vivo pulmonary thromboembolism was induced in mice according to previously described procedures [18, 19]. Ten Swiss male mice (25−30 g) were used in each test group and the control group. Compounds (3a,b, 4a,b, 8a,b, 9a,b, 13a,b and 14a,b) and acetylsalicylic acid were given orally (100 µmol/10 g, 0.1 mL/10 g) using a 2% carboxymethylcellulose suspension as the vehicle. After 60 min, an intravenous injection of the thrombogenic stimulus containing a mixture of collagen (11 mg/kg) plus epinephrine (0.7 mg/kg) was administered through the tail vein. The dose of the pro-thrombotic mixture was previously characterized using a dose/response curve able to reliably reproduce 80%–90% mortality rate or animal paralysis [15]. The loss of the righting reflex was considered an indication of animal’s paralysis in the control group. The rates of animal survival and paralysis were evaluated 15 min after the administration of the thrombogenic stimulus. After this time, the animals were euthanized using carbon dioxide. […] The protection against acute pulmonary thromboembolism (percentage) was calculated as follows: [1 − (paralyzed + death animals)/total animals] × 100. The chi-square test was used to examine the difference between the control and treated groups.

For a further data set, the system named is rat platelet-rich plasma. Briefly: In vitro antiplatelet activity: platelet aggregation in rat platelet-rich plasma (turbidimetric method of Born and Cross). The class given is cell-based. The settings on record: compounds and ASA at 150 μM, rat PRP, n = 3; for inhibition at 150 µM: Platelet.
The subject of data set [2] is micronucleated reticulocytes (MNRET) of mice. Description: In vivo genotoxicity: micronucleus test in peripheral blood reticulocytes. As for the experimental part:
The genotoxicity induced by 14a was evaluated using the micronucleus test.
Compound 14a (250 mg/kg) and negative control (1% carboxymethylcellulose (CMC) suspension and 0.2% tween; 0.3 mL) were administered to the animals orally. The positive control group received cyclophosphamide (50 mg/kg; i.p.). Groups of 10 Swiss mice of both sexes (25−30 g) were used in each test and control group. After 30 h, the animals were anesthetized using a mixture of ketamine/xylazine (100/10 mg/kg; i.p.), and […] of blood were collected from the tail vein and added to laminas pre-stained with acridine orange. The animals were euthanized via deepening of anesthesia. One thousand reticulocytes per animal were counted, and the frequency of micronucleated cells was registered. […] When p < 0.05, the average values for the treatments were compared using the Tukey method, calculating the minimum significant difference at α = 0.05.

Setting [3] is: aggregation induced by ADP 10 μM.
[4] abbreviates: aggregation induced by arachidonic acid 100 μM.
The mark [5] stands for this setting: aggregation induced by collagen 5 μg/mL.
The mark [6] stands for this setting: aggregation induced by ADP 10 μM, read-out: Platelet Inhibition (%) ADP (10 μM).
[7] abbreviates: aggregation induced by collagen 5 μg/mL, read-out: Platelet Inhibition (%) Collagen (5 μg/mL).
The mark [8] stands for this setting: aggregation induced by arachidonic acid 100 μM, read-out: Platelet Inhibition (%) Arachidonic Acid (100 μM).

Where two headings read alike, the source gives them in different places. Marks after values point to notes of the source that are not given here.

Procedure for rat platelet-rich plasma: In vitro antiplatelet activity was evaluated using rat platelet-rich plasma in the presence of ADP (10 μM), arachidonic acid (100 μM) and collagen (5 μg/mL) [15, 16].
Five rats (Wistar; 200–250 g) were previously anesthetized by inhalation of isoflurane using a vaporizing system. Animal breathing was monitored during all procedures. Blood was withdrawn from each rat’s aorta artery and mixed with 3.8% trisodium citrate (9:1 v/v). The animals were then euthanized by deepening of anesthesia. Platelet-rich plasma (PRP) was prepared by centrifugation at 375× g for 10 min at room temperature. The platelet-poor plasma (PPP) was prepared by centrifugation of the pellet at 1800× g for 10 min at room temperature. Platelet aggregation was monitored by the turbidimetric method of Born and Cross [16] using a Chrono-Log aggregometer. PRP (300 μL) was incubated at 37 °C for 1 min with continuous stirring at 900 rpm. ADP (10 μM), type I collagen (5 μg/mL; molecular weight of 115–130 kDa) and arachidonic acid (100 μM) were used to induce platelet aggregation. […] Acetylsalicylic acid (AAS, 150 μM) was used as positive control. The results were expressed as an inhibition percentage. The statistical analysis was performed using ANOVA followed by Tukey’ s test.

As for “3-((2-(3-Hydroxybenzoyl)hydrazono)methyl)-4-methyl-1,2,5-oxadiazole 2-oxide [Compound 3a]”, in data set [1], the deaths per group entry is listed as “two”, the “% Protection” value is 40 * % and the “Paralyzed or Died Animals/Total” value was 6/10. The “Platelet Inhibition (%) ADP (10 μM)” value in the data set with rat platelet-rich plasma (setting [3]) was determined as 10.1 ± 3.3 %. For the same molecule, in the data set on rat platelet-rich plasma (setting [4]), the “Platelet Inhibition (%) Arachidonic Acid (100 μM)” value came out at 52.6 ± 4.1 %. Besides, in the data set on rat platelet-rich plasma (setting [5]), the “Platelet Inhibition (%) Collagen (5 μg/mL)” value is on record as 17.5 ± 2.7 %.
With “3-((2-(4-Hydroxybenzoyl)hydrazono)methyl)-4-methyl-1,2,5-oxadiazole 2-oxide [Compound 3b]”, in data set [1], the deaths per group entry was “two”, the “% Protection” value was 30 * % and the “Paralyzed or Died Animals/Total” value is on record as 7/10. Further, the “Platelet Inhibition (%) ADP (10 μM)” value with rat platelet-rich plasma (setting [3]) stood at 16.8 ± 2.9 %. Moreover, the “Platelet Inhibition (%) Arachidonic Acid (100 μM)” value in the data set on rat platelet-rich plasma (setting [4]) amounted to 47.8 ± 3.7 %. Further, in the data set with rat platelet-rich plasma (setting [5]), the “Platelet Inhibition (%) Collagen (5 μg/mL)” value worked out at 10.5 ± 3.3 %.
On to “5-((2-(3-Hydroxybenzoyl)hydrazono)methyl)benzo[c][1,2,5]oxadiazole 1-oxide [Compound 13a]”, for which, in data set [1], the “% Protection” value is 70 *^,† % and the “Paralyzed or Died Animals/Total” value was 3/10. Moreover, the “Platelet Inhibition (%) ADP (10 μM)” value with rat platelet-rich plasma (setting [3]) is reported as 47.1 ± 2.5 %. Further, the “Platelet Inhibition (%) Arachidonic Acid (100 μM)” value with rat platelet-rich plasma (setting [4]) is recorded as 52.3 ± 3.8 %. Moreover, the “Platelet Inhibition (%) Collagen (5 μg/mL)” value in the data set on rat platelet-rich plasma (setting [5]) was determined as 45.1 ± 3.8 %.
As for `CC(=O)Oc1ccccc1C(=O)O` [ASA, acetylsalicylic acid, reference compound], in data set [1], the deaths per group result was “two”, the “% Protection” value is given as 30 * % and the “Paralyzed or Died Animals/Total” value is given as 7/10. The inhibition at 150 µM in the data set on rat platelet-rich plasma (setting [6]) was 0%. The inhibition at 150 µM with rat platelet-rich plasma (setting [7]) was 77.1 ± 3.7%. Further, the “Platelet Inhibition (%) ADP (10 μM)” value with rat platelet-rich plasma (setting [3]) was “did not inhibit”. Further, in the data set with rat platelet-rich plasma (setting [4]), the “Platelet Inhibition (%) Arachidonic Acid (100 μM)” value is recorded as 72.2 ± 3.7 %.
As to `O=C(NN=Cc1c(-c2ccccc2)no[n+]1[O-])c1cccc(O)c1` [Compound 8a, 3-((2-(3-Hydroxybenzoyl)hydrazono)methyl)-4-phenyl-1,2,5-oxadiazole 2-oxide], in data set [1], the deaths per group result is reported as “two”, the “% Protection” value was 40 * % and the “Paralyzed or Died Animals/Total” value is 6/10. For the same molecule, the inhibition at 150 µM with rat platelet-rich plasma (setting [6]) came out at 12.4 ± 3.7%. For the same molecule, the inhibition at 150 µM in the data set on rat platelet-rich plasma (setting [8]) is 55.1 ± 4.3%. In addition, in the data set with rat platelet-rich plasma (setting [7]), the inhibition at 150 µM stood at 21.8 ± 5.1%.
On to `O=C(NN=Cc1c(-c2ccccc2)no[n+]1[O-])c1ccc(O)cc1` [Compound 8b, 3-((2-(4-Hydroxybenzoyl)hydrazono)methyl)-4-phenyl-1,2,5-oxadiazole 2-oxide], for which, in data set [1], the deaths per group entry is listed as “two”, the “% Protection” value is on record as 40 * % and the “Paralyzed or Died Animals/Total” value is recorded as 6/10. Besides, in the data set on rat platelet-rich plasma (setting [6]), the inhibition at 150 µM is 9.2 ± 2.8%. Moreover, in the data set with rat platelet-rich plasma (setting [8]), the inhibition at 150 µM stood at 31.6 ± 3.9%. Moreover, in the data set with rat platelet-rich plasma (setting [7]), the inhibition at 150 µM came to 8.8 ± 3.6%.
Turning to `CC(=O)Oc1ccccc1C(=O)Oc1cccc(C(=O)N/N=C/c2c(-c3ccccc3)no[n+]2[O-])c1` [Compound 9a, (E)-3-((2-(3-((2-Acetoxybenzoyl)oxy)benzoyl)hydrazono)methyl)-4-phenyl-1,2,5-oxadiazole 2-oxide], in data set [1], the deaths per group entry is reported as “two”, the “% Protection” value is on record as 30 * % and the “Paralyzed or Died Animals/Total” value is on record as 7/10. Moreover, the inhibition at 150 µM in the data set on rat platelet-rich plasma (setting [6]) was 53.4 ± 2.1%. Also, in the data set with rat platelet-rich plasma (setting [8]), the inhibition at 150 µM amounted to 73.4 ± 3.3%. Moreover, the inhibition at 150 µM in the data set with rat platelet-rich plasma (setting [7]) was 43.5 ± 4.7%.
Turning to `CC(=O)Oc1ccccc1C(=O)Oc1ccc(C(=O)N/N=C/c2c(-c3ccccc3)no[n+]2[O-])cc1` [Compound 9b, (E)-3-((2-(4-((2-Acetoxybenzoyl)oxy)benzoyl)hydrazono)methyl)-4-phenyl-1,2,5-oxadiazole 2-oxide], in data set [1], the “% Protection” value is on record as 50 *^,† %. Also, in data set [1], the “Paralyzed or Died Animals/Total” value was 5/10. For the same molecule, the figures for the inhibition at 150 µM in the data set on rat platelet-rich plasma (setting [6]), with rat platelet-rich plasma (setting [8]) and in the data set with rat platelet-rich plasma (setting [7]) were 68.8 ± 1.3%, 82.7 ± 2.1% and 47.2 ± 2.9%, respectively.
Take `O=C(NN=Cc1ccc2c(c1)no[n+]2[O-])c1ccc(O)cc1` [Compound 13b, 5-((2-(4-Hydroxybenzoyl)hydrazono)methyl)benzo[c][1,2,5]oxadiazole 1-oxide]: in data set [1], the “% Protection” value is 70 *^,† % and the “Paralyzed or Died Animals/Total” value is reported as 3/10. Further, in the data set on rat platelet-rich plasma (setting [3]), the “Platelet Inhibition (%) ADP (10 μM)” value worked out at 44.2 ± 5.1 %. Also, in the data set on rat platelet-rich plasma (setting [4]), the “Platelet Inhibition (%) Arachidonic Acid (100 μM)” value was 57.8 ± 4.9 %. For the same molecule, in the data set on rat platelet-rich plasma (setting [5]), the “Platelet Inhibition (%) Collagen (5 μg/mL)” value turned out to be 43.0 ± 3.1 %.
Turning to `CC(=O)Oc1ccccc1C(=O)Oc1cccc(C(=O)N/N=C/c2ccc3c(c2)no[n+]3[O-])c1` [Compound 14a, (E)-5-((2-(3-((2-Acetoxybenzoyl)oxy)benzoyl)hydrazono)methyl)benzo[c][1,2,5]oxadiazole 1-oxide], in data set [1], the “% Protection” value is recorded as 80 *^,† % and the “Paralyzed or Died Animals/Total” value is reported as 2/10. Also, the “micronucleated reticulocytes (MNRET), frequency in 1000 cells” value in data set [2] (mouse, in vivo, po, 250 mg/kg) is listed as under 4. Also, the “Platelet Inhibition (%) Arachidonic Acid (100 μM)” value with rat platelet-rich plasma (setting [4]) came out at 76.9 ± 3.1 %. In the data set with rat platelet-rich plasma (setting [5]), the “Platelet Inhibition (%) Collagen (5 μg/mL)” value came to 85.3 ± 3.7 %.
On to `CC(=O)Oc1ccccc1C(=O)Oc1ccc(C(=O)N/N=C/c2ccc3c(c2)no[n+]3[O-])cc1` [Compound 14b, (E)-5-((2-(4-((2-Acetoxybenzoyl)oxy)benzoyl)hydrazono)methyl)benzo[c][1,2,5]oxadiazole 1-oxide], for which, in data set [1], the “% Protection” value is reported as 70 *^,† % and the “Paralyzed or Died Animals/Total” value is 3/10. In the data set with rat platelet-rich plasma (setting [4]), the “Platelet Inhibition (%) Arachidonic Acid (100 μM)” value was 79.1 ± 1.9 %. Also, the “Platelet Inhibition (%) Collagen (5 μg/mL)” value with rat platelet-rich plasma (setting [5]) is 79.8 ± 3.4 %.
For the molecule `O=P1(N(CCCl)CCCl)NCCCO1` (stereo not drawn) [Cyclophosphamide, reference compound], the “micronucleated reticulocytes (MNRET), frequency in 1000 cells” value in data set [2] (mice, positive control 50 mg/kg i.p., blood collected after 30 h, mean ± SD) turned out to be 41 ± 5.
“(E)-3-((2-(3-((2-Acetoxybenzoyl)oxy)benzoyl)hydrazono)methyl)-4-methyl-1,2,5-oxadiazole 2-oxide [Compound 4a]”: in data set [1], the deaths per group entry is given as “two”, the “% Protection” value is 40 * % and the “Paralyzed or Died Animals/Total” value is 6/10. Further, in the data set on rat platelet-rich plasma (setting [3]), the “Platelet Inhibition (%) ADP (10 μM)” value came to 65.6 ± 2.4 %. In the data set on rat platelet-rich plasma (setting [4]), the “Platelet Inhibition (%) Arachidonic Acid (100 μM)” value came out at 70.1 ± 2.9 %. Besides, the “Platelet Inhibition (%) Collagen (5 μg/mL)” value in the data set on rat platelet-rich plasma (setting [5]) is on record as 37.8 ± 4.1 %.
Consider “(E)-3-((2-(4-((2-Acetoxybenzoyl)oxy)benzoyl)hydrazono)methyl)-4-methyl-1,2,5-oxadiazole 2-oxide [Compound 4b]”, for which, in data set [1], the “% Protection” value is given as 50 *^,† % and the “Paralyzed or Died Animals/Total” value is reported as 5/10. Besides, in the data set with rat platelet-rich plasma (setting [4]), the “Platelet Inhibition (%) Arachidonic Acid (100 μM)” value is reported as 87.5 ± 2.6 %. Besides, the “Platelet Inhibition (%) Collagen (5 μg/mL)” value with rat platelet-rich plasma (setting [5]) came out at 34.5 ± 3.5 %.

(Values after publication PMC6332090, “Synthesis and Preliminary Evaluation of N-Oxide Derivatives for the Prevention of Atherothrombotic Events” (Molecules, 2015).)
